According to ChEMBL document CHEMBL1201862, “PubChem BioAssay data set” (2004):
Counter-ions that a name gives are not always drawn. Active and inactive are the calls of the source.

How the values were obtained:
Vasopressin V1b receptor = Vasopressin V1b receptor (Homo sapiens, UniProt P47901); experiment: Late-stage results from the probe development effort to identify antagonists of arginine vasopressin receptor 1a (AVPR1a): fluorescence-based cell-based dose response AVPR1b inhibition counterscreen assay.; assay type: functional
Vasopressin V1b receptor, sequence (P47901 whole entry): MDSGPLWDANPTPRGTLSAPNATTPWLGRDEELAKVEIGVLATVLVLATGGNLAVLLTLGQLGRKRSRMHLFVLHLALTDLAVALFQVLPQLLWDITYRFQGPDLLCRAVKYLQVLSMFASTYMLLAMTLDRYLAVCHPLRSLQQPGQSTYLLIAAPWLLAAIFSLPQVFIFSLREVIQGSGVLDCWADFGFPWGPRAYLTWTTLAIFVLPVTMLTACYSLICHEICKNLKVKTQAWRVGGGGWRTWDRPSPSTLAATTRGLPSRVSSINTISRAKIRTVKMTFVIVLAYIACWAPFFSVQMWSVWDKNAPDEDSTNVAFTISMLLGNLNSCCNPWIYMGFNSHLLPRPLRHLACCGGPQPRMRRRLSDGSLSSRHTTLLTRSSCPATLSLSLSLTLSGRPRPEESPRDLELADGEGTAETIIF

[1] = Late-stage results from the probe development effort to identify antagonists of arginine vasopressin receptor 1a (AVPR1a): fluorescence-based cell-based dose response OXTR inhibition counterscreen assay.; assay type: functional
Vasopressin V2 receptor = Vasopressin V2 receptor (Homo sapiens, UniProt P30518); experiment: Late-stage results from the probe development effort to identify antagonists of arginine vasopressin receptor 1a (AVPR1a): fluorescence-based cell-based dose response AVPR2 inhibition counterscreen assay.; assay type: functional
Vasopressin V2 receptor, sequence (P30518 whole entry): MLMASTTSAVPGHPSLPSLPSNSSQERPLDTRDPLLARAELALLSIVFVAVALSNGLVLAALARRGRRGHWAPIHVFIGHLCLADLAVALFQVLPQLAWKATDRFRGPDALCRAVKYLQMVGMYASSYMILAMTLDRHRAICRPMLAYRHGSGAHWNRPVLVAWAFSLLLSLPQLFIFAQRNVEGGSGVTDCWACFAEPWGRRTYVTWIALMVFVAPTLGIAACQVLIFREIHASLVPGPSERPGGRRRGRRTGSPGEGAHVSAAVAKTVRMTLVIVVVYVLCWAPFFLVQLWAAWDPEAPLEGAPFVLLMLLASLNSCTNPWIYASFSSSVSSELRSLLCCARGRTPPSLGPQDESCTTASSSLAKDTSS

[2] = Late-stage results from the probe development effort to identify antagonists of arginine vasopressin receptor 1a (AVPR1a): fluorescence-based cell-based dose response AVPR1a inhibition assay.; assay type: functional
[3] = target: G-protein coupled receptor 183 (Homo sapiens, UniProt P32249); experiment: SAR confirmation of small molecule antagonists of the EBI2 receptor via a luminescent beta-arrestin assa.; assay type: functional
G-protein coupled receptor 183, sequence (P32249 whole entry): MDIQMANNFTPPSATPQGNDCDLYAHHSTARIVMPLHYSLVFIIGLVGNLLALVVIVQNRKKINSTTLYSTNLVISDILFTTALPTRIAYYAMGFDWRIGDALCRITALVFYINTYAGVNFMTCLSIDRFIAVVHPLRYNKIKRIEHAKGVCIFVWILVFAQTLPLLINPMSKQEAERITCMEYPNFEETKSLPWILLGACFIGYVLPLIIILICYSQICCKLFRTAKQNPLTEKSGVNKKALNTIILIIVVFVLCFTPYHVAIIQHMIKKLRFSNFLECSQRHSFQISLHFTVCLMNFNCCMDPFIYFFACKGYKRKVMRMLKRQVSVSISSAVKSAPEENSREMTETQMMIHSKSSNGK

[4] = IC50 of Artemis nuclease activity blockers – biochemical, fluorescence intensity, dose response (AID 720701); assay type: functional;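 further: Artemis endonuclease enzyme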
[5] = NIH3T3 cell viability loss – ATP luminescence, mouse fibroblasts, counter-screen, dose response (AID 2010); assay type: functional, cell-based;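 further: cells exposed to compound for about 90 hours before reading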
Streptococcus = experiment: GAS UMAA2166 growth inhibition – luminescence, BacTiterGlo, counter-screen for streptokinase expression inhibitor project, dose response (AID 1915); assay type: functional, organism-based;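 further: potency for reduction of bacterial viability or growth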
[6] = Luminescence Cell-Based Dose Response HTS to Identify Inhibitors of 5'UTR Stem-Loop Driven Prion Protein mRNA Translation in H4 Neuroglioblastoma Cells. [Related pubchem assays: 1827 (Project Summary), 1813 (Primary HTS)]; assay type: functional
[7] = luciferase reporter signal suppression in cells – H4 neuroglioma cells, luminescence, dose response (AID 1990); assay type: functional, cell-based
[8] = alpha-synuclein stem-loop luciferase translation blockers – H4 neuroglioma cells, luminescence, confirmation (AID 1988); assay type: functional, cell-based
Protein RecA = target: T1, Protein RecA (Mycobacterium tuberculosis, UniProt P9WHJ3); experiment: Fluorescence Cell-Free Homogeneous Dose Retest to Identify Inhibitors of RecA-Intein Splicing Activity. [Related pubchem assays (depositor defined):AID2097, AID2223, AID489010, AID492950]; assay type: functional
T1 sequence (P9WHJ3 whole entry): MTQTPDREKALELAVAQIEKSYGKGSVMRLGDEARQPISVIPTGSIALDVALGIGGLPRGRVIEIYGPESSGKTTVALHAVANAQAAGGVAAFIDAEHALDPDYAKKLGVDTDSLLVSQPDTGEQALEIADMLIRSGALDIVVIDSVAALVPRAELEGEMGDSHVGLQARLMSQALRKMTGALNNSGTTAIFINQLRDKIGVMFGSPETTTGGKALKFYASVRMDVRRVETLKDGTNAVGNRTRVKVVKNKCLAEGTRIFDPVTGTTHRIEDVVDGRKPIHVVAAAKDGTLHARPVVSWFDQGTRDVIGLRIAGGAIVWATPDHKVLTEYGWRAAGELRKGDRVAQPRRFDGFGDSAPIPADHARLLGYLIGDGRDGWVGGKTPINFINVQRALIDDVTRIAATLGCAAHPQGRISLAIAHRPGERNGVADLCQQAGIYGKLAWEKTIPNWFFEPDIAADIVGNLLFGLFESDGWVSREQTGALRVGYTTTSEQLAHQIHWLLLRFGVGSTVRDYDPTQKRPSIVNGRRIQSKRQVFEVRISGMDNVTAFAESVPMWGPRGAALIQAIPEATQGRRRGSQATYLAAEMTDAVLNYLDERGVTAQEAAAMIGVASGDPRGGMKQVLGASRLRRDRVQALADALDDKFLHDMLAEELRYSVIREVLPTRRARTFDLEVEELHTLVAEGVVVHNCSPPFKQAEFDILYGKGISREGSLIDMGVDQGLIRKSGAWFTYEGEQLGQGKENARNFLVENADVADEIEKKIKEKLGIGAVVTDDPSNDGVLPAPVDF

[9] = Trypanosoma cruzi growth suppression in host cells – NIH3T3 host cells, beta-gal luminescence, confirmation (AID 2044); assay type: functional, cell-based;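 further: intracellular parasites grown in NIH/3T3 mouse fibroblasts as host cells; luminescent beta-galactosidase reporter signal from transgenic T. cruzi replicating inside host cells; inhibitors lower the luminescence signal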
[10] = target: T2, Replicative DNA helicase DnaB (Mycobacterium tuberculosis, UniProt P9WMR3); experiment: DnaB intein splicing inhibitors, dose response, biochemical, cell-free fluorescence (AID 449749); assay type: functional
T2 sequence (P9WMR3 whole entry): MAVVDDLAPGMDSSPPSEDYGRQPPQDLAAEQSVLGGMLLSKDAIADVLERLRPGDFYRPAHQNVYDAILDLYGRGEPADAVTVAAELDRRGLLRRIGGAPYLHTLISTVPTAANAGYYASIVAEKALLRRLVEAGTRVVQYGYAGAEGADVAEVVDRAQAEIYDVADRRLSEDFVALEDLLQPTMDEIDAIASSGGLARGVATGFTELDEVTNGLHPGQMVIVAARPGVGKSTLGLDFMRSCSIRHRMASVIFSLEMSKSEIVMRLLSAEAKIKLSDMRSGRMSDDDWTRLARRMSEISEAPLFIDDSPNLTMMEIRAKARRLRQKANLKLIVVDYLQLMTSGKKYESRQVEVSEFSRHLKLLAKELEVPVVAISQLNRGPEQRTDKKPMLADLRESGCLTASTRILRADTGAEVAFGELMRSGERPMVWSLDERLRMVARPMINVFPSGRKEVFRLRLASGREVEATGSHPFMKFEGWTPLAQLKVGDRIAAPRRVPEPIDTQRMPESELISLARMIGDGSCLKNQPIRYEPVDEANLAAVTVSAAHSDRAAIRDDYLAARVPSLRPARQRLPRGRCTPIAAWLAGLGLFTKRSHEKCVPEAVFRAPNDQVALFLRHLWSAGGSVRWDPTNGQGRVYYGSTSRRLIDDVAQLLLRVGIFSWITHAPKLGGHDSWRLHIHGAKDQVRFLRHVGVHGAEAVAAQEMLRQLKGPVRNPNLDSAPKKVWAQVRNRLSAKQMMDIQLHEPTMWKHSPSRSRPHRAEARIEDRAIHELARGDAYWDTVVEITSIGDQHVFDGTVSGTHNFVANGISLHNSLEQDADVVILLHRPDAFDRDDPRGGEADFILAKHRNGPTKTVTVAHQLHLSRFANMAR

[11] = test system: Streptococcus sp. 'group A'; experiment: Streptococcus pyogenes SK(-)GAS viability under kanamycin – luminescence, BacTiterGlo, confirmation, counter-screen for streptokinase expression inhibitor project, dose response (AID 1900); assay type: functional, organism-based
[12] = target: T3, Apoptotic protease-activating factor 1 (Homo sapiens, UniProt O14727); assay type: functional
T3 sequence (O14727 whole entry): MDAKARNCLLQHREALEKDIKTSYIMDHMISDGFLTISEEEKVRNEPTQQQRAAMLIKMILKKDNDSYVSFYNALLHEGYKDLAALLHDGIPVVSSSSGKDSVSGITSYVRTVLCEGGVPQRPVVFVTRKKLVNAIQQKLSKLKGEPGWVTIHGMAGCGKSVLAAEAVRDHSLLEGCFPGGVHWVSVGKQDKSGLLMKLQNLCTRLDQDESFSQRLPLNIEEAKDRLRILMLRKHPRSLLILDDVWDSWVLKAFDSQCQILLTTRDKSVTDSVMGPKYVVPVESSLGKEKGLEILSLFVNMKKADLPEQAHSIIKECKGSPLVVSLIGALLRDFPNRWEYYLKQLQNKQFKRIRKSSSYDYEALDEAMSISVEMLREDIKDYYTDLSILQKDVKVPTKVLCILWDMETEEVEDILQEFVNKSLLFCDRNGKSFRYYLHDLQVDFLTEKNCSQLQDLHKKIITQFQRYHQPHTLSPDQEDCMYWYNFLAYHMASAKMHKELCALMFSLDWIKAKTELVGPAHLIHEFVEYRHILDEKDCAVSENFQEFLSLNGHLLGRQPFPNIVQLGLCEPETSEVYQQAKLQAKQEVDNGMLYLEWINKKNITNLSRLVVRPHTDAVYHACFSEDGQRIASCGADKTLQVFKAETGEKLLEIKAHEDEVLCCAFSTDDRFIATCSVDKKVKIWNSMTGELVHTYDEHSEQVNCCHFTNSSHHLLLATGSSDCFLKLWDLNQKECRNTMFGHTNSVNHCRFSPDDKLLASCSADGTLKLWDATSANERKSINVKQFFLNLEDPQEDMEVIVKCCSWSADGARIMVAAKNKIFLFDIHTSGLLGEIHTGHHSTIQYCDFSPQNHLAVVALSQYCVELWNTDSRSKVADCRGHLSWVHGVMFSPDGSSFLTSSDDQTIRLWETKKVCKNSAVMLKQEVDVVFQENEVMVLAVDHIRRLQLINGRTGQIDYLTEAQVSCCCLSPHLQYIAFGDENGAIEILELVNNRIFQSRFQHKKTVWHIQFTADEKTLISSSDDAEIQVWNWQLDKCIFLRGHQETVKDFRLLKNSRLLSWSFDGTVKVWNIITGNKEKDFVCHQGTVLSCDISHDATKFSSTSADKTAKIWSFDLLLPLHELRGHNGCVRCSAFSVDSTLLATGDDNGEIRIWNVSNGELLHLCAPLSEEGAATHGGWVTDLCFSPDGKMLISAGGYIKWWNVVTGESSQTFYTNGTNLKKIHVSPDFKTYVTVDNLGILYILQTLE

[13] = inhibition of fibronectin matrix deposition – AH1F cells, Alexa488-fibronectin fluorescence, cherry-pick, set 2, dose response (AID 1117283); assay type: functional, cell-based
[14] = cytotoxicity toward Colo320 cells – cell-based, CellTiter-Glo luminescence, IC50, dose response (AID 1117334); assay type: functional; settings: COLO 320
[15] = Reduced DLD-1 viability, concentration-response, CellTiter-Glo luminescence (AID 1117352); assay type: functional
[16] = RKO cell viability reduction, dose response, CellTiter-Glo luminescence (AID 1117322); assay type: functional
[17] = HCT116 cell viability decrease, GSK3B pretreatment – CellTiter-Glo, IC50, dose response (AID 1117339); assay type: functional; settings: HCT-116
[18] = Potency on glucagon-like peptide 1 release, dose-response in NCI-H716 cell line, half maximal inhibitory concentration (AID 1117344); assay type: functional, cell-based
[19] = CellTiter-Glo luminescence survival assay, SW480 colon tumor line, concentration-response curve, half-maximal inhibitory concentration (AID 1117338); assay type: functional
[20] = cytotoxicity toward HCT116 cells – cell-based, CellTiter-Glo luminescence, IC50, dose response (AID 1117332); assay type: functional; settings: HCT-116
[21] = cytotoxicity toward HT-29 cells – cell-based, CellTiter-Glo luminescence, IC50, dose response (AID 1117330); assay type: functional
[22] = SNU-C1 cell viability reduction, dose response, CellTiter-Glo luminescence (AID 1117323); assay type: functional, cell-based
[23] = glucagon-like peptide-1 release potency in STC-1, concentration-response, half-maximal inhibitory concentration in the STC-1 line (AID 1117345); assay type: functional, cell-based
[24] = rise of 4N DNA cells, HeLa – IC50, dose response (AID 1117351); assay type: functional, cell-based
[25] = rise of 2N DNA cells, HeLa – IC50, dose response (AID 1117349); assay type: functional, cell-based

For `Cc1ccccc1N1CCN(C(=O)N(CC2CC2)c2ccccc2)CC1`, the IC50 (Vasopressin V1b receptor) was 22 µM (inactive), the IC50 [1] was 4.9 µM (active) and the IC50 (Vasopressin V2 receptor) was 4.89 µM (active). The IC50 [2] was 0.019 µM (active).
With `O=C(c1ccc(Br)cc1)N1CCN(Cc2ccc(Cl)cc2)CC1` the IC50 [3] was 0.478 µM (active).
In the case of `O=C1c2ccccc2C(=O)c2c1oc(C(F)(F)F)c2C(=O)c1ccccc1`, the IC50 [4] is reported as > 20 µM (inactive), the EC50 [5] is reported as > 60 µM (not active) and the EC50 (Streptococcus) is reported as 2.41 µM (active). For the same compound, the EC50 [6] was 7.26 µM (active), the EC50 [7] was 6.73 µM (active) and the EC50 [8] was 3.37 µM (active). The EC50 (Protein RecA) was 15.3 µM (active), the EC50 [9] was 1.76 µM (active) and the AC50 [10] was > 380 µM (inconclusive). The EC50 [11] was 2.11 µM (active) and the IC50 [12] was 4.72 µM (active).
With `C[C@H](O)C#Cc1ccc2c(c1)O[C@H](CN(C)C)[C@@H](C)CN([C@@H](C)CO)S2(=O)=O` the AC50 [13] was > 70 µM (inactive).
For `COCC(=O)O[C@]1(CCN(C)CCCc2nc3ccccc3[nH]2)CCc2cc(F)ccc2[C@@H]1C(C)C` [MIBEFRADIL DIHYDROCHLORIDE], the IC50 [14] was 10.5 µM (inactive), the IC50 [15] was 7.26 µM (inactive) and the IC50 [16] was 6.72 µM (inactive). The IC50 [17] was 5.33 µM (inactive), the IC50 [18] was > 40 µM (inactive) and the IC50 [19] was 4.54 µM (active). The IC50 [20] was 12.4 µM (inactive), the IC50 [21] was 3.08 µM (active) and the IC50 [22] was 5.44 µM (inactive). The IC50 [23] was 8.24 µM (inactive).
For `CCN(CC)CCOc1ccc(C(O)(Cc2ccc(Cl)cc2)c2ccc(C)cc2)cc1` (stereo not given) [TRIPARANOL], the IC50 [14] was 8.99 µM (inactive), the IC50 [15] was > 20 µM (inactive) and the IC50 [16] was 0.299 µM (active). For the same compound, the IC50 [17] was 3.74 µM (active), the IC50 [24] was > 10 µM (inactive) and the IC50 [18] was 36.1 µM (inactive). The IC50 [19] was 3.76 µM (active), the IC50 [20] was > 20 µM (inactive) and the IC50 [21] was 3.17 µM (active). The IC50 [22] was 2.46 µM (active), the IC50 [23] was > 40 µM (inactive) and the IC50 [25] was > 10 µM (inactive).
With `C[C@@H]1CN([C@H](C)CO)C(=O)c2cc(-c3ccccc3)cnc2O[C@@H]1CN(C)C(=O)c1cccc(F)c1` the AC50 [13] was > 70 µM (inactive).
